This passage reports EC50 results from patent US9643982B2, “Fused tricyclic heterocyclic compounds as HIV integrase inhibitors” (Merck Sharp & Dohme Corp., priority 2013, dated 2017).

The assay deals with HIV-1 (NL4-3 strain). As to the kind of experiment: Multiple round HIV-1 infection assay in MT4-GFP cells (Wild Type Cell Assay). In kind it is cell-based. To be noted: Human immunodeficiency virus 1, NL43, MT4-GFP cells infected with HIV-1 NL4-3, read-out: Wild Type Cell Assay IP. On the procedure: HIV-1 replication was monitored using MT4-gag-GFP clone D3 (hereafter designate MT4-GFP), which are MT-4 cells modified to harbor a GFP reporter gene, the expression of which is dependent on the HIV-1 expressed proteins tat and rev. Productive infection of an MT4-GFP cell with HIV-1 results in GFP expression approximately 24 h post-infection.
MT4-GFP cells were maintained at 37° C./5% CO2/90% relative humidity in RPMI 1640 supplemented with 10% fetal bovine serum, 100 U/ml penicillin/streptomycin, and 400 μg/ml G418 to maintain the reporter gene. For infections, MT4-GFP cells were placed in the same medium lacking G418 and infected overnight with HIV-1 (NL4-3 strain) virus at an approximate multiplicity of infection of 0.01 in the same incubation conditions.
Cells were then washed and resuspended in either RPMI 1640 supplemented with 10% normal human serum (NHS) or without NHS at 1.6×10^5 cells/mL (10% NHS or serum-free conditions) or in 100% normal human serum at 2×10^5 cells/mL (100% NHS conditions). Compound plates were prepared by dispensing compounds dissolved in DMSO into wells of 384 well poly D lysine-coated plates (0.2 μl/well) using an ECHO acoustic dispenser. Each compound was tested in a 10 point serial 3-fold dilution (typical final concentrations: 8.4 μM-0.42 nM). Controls included no inhibitor (DMSO only) and a combination of three antiviral agents (efavirenz, indinavir, and the integrase strand transfer inhibitor L-002254051 at final concentrations of 4 μM each). Cells were added (50 μL/well) to compound plates and the infected cells were maintained at 37° C./5% CO2/90% relative humidity.

Like-named read-outs stand apart in the source and are kept apart here.

On to `CC(C)N1C[C@@H]2COCc3c(-c4nnc(Cc5ccc(F)cc5F)s4)c(=O)c(O)c(n32)C1=O` (single isomer, unassigned) [Compound 13, 9-(5-(2,4-difluorobenzyl)-1,3,4-thiadiazol-2-yl)-7-hydroxy-5-isopropyl-3,3a,4,5-tetrahydro-1H-2-oxa-3a1,5-diazaphenalene-6,8-dione], for which the EC50 (0 % NHS (serum-free)) was determined as 5 nM.
In the case of `CC(C)(O)CN1C[C@@H]2CCc3c(C(=O)NCc4ccc(F)c(F)c4F)c(=O)c(O)c(n32)C1=O` (single isomer, unassigned) [Compound 23], the EC50 (0 % NHS (serum-free)) was 3.8 nM.
Regarding `CCN1C[C@@H]2C[C@@H](OC)c3c(C(=O)NCc4ccc(F)cc4F)c(=O)c(O)c(n32)C1=O` (single isomer, unassigned) [Compound 30], under “0 % NHS (serum-free)”, the EC50 was 1 nM.
For `COCCN1CC2CCc3c(C(=O)NCc4c(F)cc(F)cc4OC)c(=O)c(O)c(n32)C1=O` (racemic) [Compound 19], the EC50 (0 % NHS (serum-free)) came out at 4.4 nM.
Turning to `CC(C)N1C[C@@H]2COCc3c(-c4cnn(Cc5ccc(F)cc5F)c4)c(=O)c(O)c(n32)C1=O` (single isomer, unassigned) [Compound 15], the EC50 (0 % NHS (serum-free)) is 234 nM.
With `COCCN1CC2COCc3c(C(=O)NCc4ccc(F)cc4F)c(=O)c(O)c(n32)C1=O` (racemic) [Compound 5], the EC50 (0 % NHS (serum-free)) amounted to 9.2 nM.
For the molecule `O=C(NCc1ccc(F)c(F)c1F)c1c2n3c(c(O)c1=O)C(=O)N(CC1CC1)C[C@H]3CC2` (single isomer, unassigned) [Compound 21], the EC50 (0 % NHS (serum-free)) was 3.1 nM.
For the molecule `CCO[C@@H]1C[C@H]2CN(CC)C(=O)c3c(O)c(=O)c(C(=O)NCc4ccc(F)cc4F)c1n32` (single isomer, unassigned) [Compound 38], the EC50 (0 % NHS (serum-free)) is 1.9 nM.
For the molecule `CC(C)N1C[C@@H]2COCc3c(C(=O)NCc4ccc(F)c(F)c4F)c(=O)c(O)c(n32)C1=O` (single isomer, unassigned) [Compound 9], the EC50 (10 % NHS (normal human serum)) worked out at 20 nM.
Turning to `COCCN1CC2CC(C)c3c(C(=O)NCc4ccc(F)cc4F)c(=O)c(O)c(n32)C1=O` (single isomer, unassigned) [Compound 36], the EC50 (0 % NHS (serum-free)) came out at 3.9 nM.
For the molecule `CC(C)N1CC2C(=O)N(C)Cc3c(C(=O)NCc4ccc(F)cc4F)c(=O)c(O)c(n32)C1=O` (racemic) [Compound 16, N-(2,4-difluorobenzyl)-9-hydroxy-2-isopropyl-5-methyl-1,4,8-trioxo-1,2,3,3a,4,5,6,8-octahydro-2,3a1,5-triazaphenalene-7-carboxamide], the EC50 (0 % NHS (serum-free)) is 17 nM.
`CCN1C[C@H]2C[C@@H](OC)c3c(C(=O)NCc4ccc(F)cc4F)c(=O)c(O)c(n32)C1=O` (single isomer, unassigned) [Compound 31]: for the setting “0 % NHS (serum-free)”, the EC50 came to 3.8 nM.
In the case of `CCN1CC2CC(C)c3c(C(=O)NCc4ccc(F)c(F)c4F)c(=O)c(O)c(n32)C1=O` (single isomer, unassigned) [Compound 37], the EC50 (0 % NHS (serum-free)) was 1.1 nM.
For the molecule `COCCN1C(=O)c2c(O)c(=O)c(C(=O)NCc3ccc(F)cc3F)c3n2[C@H](CC3)[C@@H]1OC` (single isomer, unassigned) [Compound 27], for the setting “0 % NHS (serum-free)”, the EC50 was 2.3 nM.
On to `CC(C)N1C[C@@H]2COCc3c(C(=O)NCc4ccc(F)cc4F)c(=O)c(O)c(n32)C1=O` (single isomer, unassigned) [Compound 3], for which the EC50 (0 % NHS (serum-free)) came to 13 nM.
On the same count and under the same terms, the figure for `O=C(NCc1ccc(F)cc1F)c1c2n3c(c(O)c1=O)C(=O)N(CCC(F)(F)F)C[C@@H]3CC2` (single isomer, unassigned) [Compound 20] is 3.8 nM; for `CCN1CC2CCc3c(C(=O)NCc4ccc(F)cc4F)c(=O)c(O)c(n32)C1=O` (racemic) [Compound 18, N-(2,4-difluorobenzyl)-2-ethyl-8-hydroxy-1,7-dioxo-2,3,3a,4,5,7-hexahydro-1H-pyrazino[2,1,6-cd]indolizine-6-carboxamide] it is 2.6 nM; for `COc1ccc(CN2CC3COCc4c(C(=O)NCc5ccc(F)cc5F)c(=O)c(O)c(n43)C2=O)cc1` (racemic) [Compound 8] it is 23 nM.
For `CC(C)N1CC2COCc3c(C(=O)NCc4ccc(F)c(Cl)c4)c(=O)c(O)c(n32)C1=O` (racemic) [Compound 10], the EC50 (10 % NHS (normal human serum)) stood at 100 nM.
As for `CCN1C(=O)c2c(O)c(=O)c(C(=O)NCc3ccc(F)cc3F)c3n2C(CC3)C1OC` (racemic) [Compound 25], the EC50 (0 % NHS (serum-free)) is 1.9 nM.
As to `CCN1C(=O)c2c(O)c(=O)c(C(=O)NCc3ccc(F)c(Cl)c3)c3n2[C@@H](CC3)[C@H]1OC` (single isomer, unassigned) [Compound 26], the EC50 (0 % NHS (serum-free)) stood at 3.2 nM.
`COCCN1C[C@H]2C[C@H](OC)c3c(C(=O)NCc4ccc(F)cc4F)c(=O)c(O)c(n32)C1=O` (single isomer, unassigned) [Compound 32]: the EC50 (0 % NHS (serum-free)) turned out to be 2.3 nM.
As to `CC(C)N1CC2COCc3c(C(=O)NCc4ccc(F)c(Cl)c4F)c(=O)c(O)c(n32)C1=O` (racemic) [Compound 12], for the setting “10 % NHS (normal human serum)”, the EC50 was 50 nM.
Consider `CO[C@@H]1C[C@H]2CN(CC3CC3)C(=O)c3c(O)c(=O)c(C(=O)NCc4ccc(F)cc4F)c1n32` (single isomer, unassigned) [Compound 33], for which the EC50 (0 % NHS (serum-free)) worked out at 2.3 nM.
On to `CC(C)N1CC2COCc3c(C(=O)NCc4ccc(F)cc4F)c(=O)c(O)c(n32)C1=O` (racemic) [Compound 2], for which, for the setting “10 % NHS (normal human serum)”, the EC50 came to 33 nM.
`CNC(=O)c1c2n3c(c(O)c1=O)C(=O)N(Cc1ccc(F)cc1)CC3CC2` (racemic) [Compound 17, 2-(4-fluorobenzyl)-8-hydroxy-N-methyl-1,7-dioxo-2,3,3a,4,5,7-hexahydro-1H-pyrazino[2,1,6-cd]indolizine-6-carboxamide]: the EC50 (0 % NHS (serum-free)) stood at 35 nM.
Regarding `CC(C)CN1CC2COCc3c(C(=O)NCc4ccc(F)cc4F)c(=O)c(O)c(n32)C1=O` (racemic) [Compound 4], where the note is “10 % NHS (normal human serum)”, the EC50 stood at 21 nM.
Consider `CN1CC2COCc3c(C(=O)NCc4ccc(F)cc4F)c(=O)c(O)c(n32)C1=O` (racemic) [Compound 1], for which the EC50 (0 % NHS (serum-free)) was 9.2 nM.
Regarding `CCN1CC2CC(OC)c3c(C(=O)NCc4ccc(F)cc4F)c(=O)c(O)c(n32)C1=O` (racemic) [Compound 29], the EC50 (0 % NHS (serum-free)) was 1.2 nM.
As for `CCN1CC2CC(C)c3c(C(=O)NCc4ccc(F)cc4F)c(=O)c(O)c(n32)C1=O` (single isomer, unassigned) [Compound 35, N-(2,4-difluorobenzyl)-2-ethyl-9-hydroxy-6-methyl-1,8-dioxo-2,3,3a,5,6,8-hexahydro-1H-pyrazino[2,1,6-cd]indolizine-7-carboxamide], the EC50 (0 % NHS (serum-free)) was 1.2 nM.
As to `Cc1c(F)ccc(CNC(=O)c2c3n4c(c(O)c2=O)C(=O)N(C(C)C)CC4COC3)c1F` (racemic) [Compound 11], the EC50 (10 % NHS (normal human serum)) turned out to be 116 nM.
For the molecule `CCO[C@H]1[C@H]2CCc3c(C(=O)NCc4ccc(F)cc4F)c(=O)c(O)c(n32)C(=O)N1CC` (single isomer, unassigned) [Compound 28], the EC50 (0 % NHS (serum-free)) came to 2.1 nM.
As for `CCN1C[C@@H]2C[C@@H](OC)c3c(C(=O)NCc4ccc(F)c(Cl)c4F)c(=O)c(O)c(n32)C1=O` (single isomer, unassigned) [Compound 34], for the setting “0 % NHS (serum-free)”, the EC50 stood at 2.9 nM.
The same measure, in the same setting: to `CO[C@H](C)CN1C[C@H]2CCc3c(C(=O)NCc4ccc(F)cc4F)c(=O)c(O)c(n32)C1=O` (single isomer, unassigned) [Compound 22] belongs 2.8 nM.
For `COCCC(C)N1CC2COCc3c(C(=O)NCc4ccc(F)cc4F)c(=O)c(O)c(n32)C1=O` (centres unmarked) [Compound 6], the EC50 (0 % NHS (serum-free)) was found to be 24 nM.
Still for that read-out and setting: the figure for `CCN1CC2CC(O)c3c(C(=O)NCc4ccc(F)cc4F)c(=O)c(O)c(n32)C1=O` (racemic) [Compound 24, N-(2,4-difluorobenzyl)-2-ethyl-5,8-dihydroxy-1,7-dioxo-2,3,3a,4,5,7-hexahydro-1H-pyrazino[2,1,6-cd]indolizine-6-carboxamide] is 2.2 nM; for `O=C(NCc1ccc(F)cc1F)c1c2n3c(c(O)c1=O)C(=O)N(Cc1cccnc1)CC3COC2` (racemic) [Compound 7] it is 9.6 nM.
With `CC(C)N1CC2COCc3c(-c4cnn(Cc5ccc(F)cc5F)c4)c(=O)c(O)c(n32)C1=O` (racemic) [Compound 14], the EC50 (0 % NHS (serum-free)) turned out to be 323 nM.
